Laboratory results: ChEMBL document CHEMBL4393691, “Design, synthesis and antitumor evaluation of novel celastrol derivatives” (Eur J Med Chem, 2019)
pIC50: −log10 of the molar value. Active and inactive are the calls of the source. The calls are words filed in the database; no cut-off is given here.

Legend:
[1] = system: A549; test: Induction of apoptosis in human A549 cells assessed as early apoptotic cells at 1.2 uM incubated for 24 hrs by AnnexinV-FITC/propidium iodide staining-based flow cytometric analysis (reference value: 4.1%); format: functional
[2] = system: A549; test: Cell cycle arrest in human A549 cells assessed as accumulation at G2 phase at 0.27 uM incubated for 12 hrs by propidium iodide staining based flow cytometry analysis (Rvb=11.7%); format: functional
[3] = system: A549; test: Induction of apoptosis in human A549 cells assessed as late apoptotic cells at 1.2 uM incubated for 24 hrs by AnnexinV-FITC/propidium iodide staining-based flow cytometric analysis (reference value: 4.2%); format: functional
[4] = system: A549; test: Induction of apoptosis in human A549 cells assessed as increase in BAX expression incubated for 8 hrs by western blot analysis; format: functional, cell-based
[5] = system: HepG2; test: Cytotoxicity against human HepG2 cells assessed as reduction in cell viability incubated for 48 hrs by MTT assay; format: functional, cell-based; conditions: HepG2, 48 h
[6] = system: A549; test: Induction of apoptosis in human A549 cells assessed as necrotic cells at 0.6 uM incubated for 24 hrs by AnnexinV-FITC/propidium iodide staining-based flow cytometric analysis (reference value: 3.6%); format: functional
[7] = system: A549; test: Cell cycle arrest in human A549 cells assessed as accumulation at G1 phase at 0.18 uM incubated for 24 hrs by propidium iodide staining based flow cytometry analysis (Rvb=55.3%); format: functional
[8] = system: A549; test: Induction of apoptosis in human A549 cells incubated for 48 hrs by Hoechst 33342 staining-based fluorescence microscopy; format: functional, cell-based
[9] = system: A549; test: Cell cycle arrest in human A549 cells assessed as accumulation at G2 phase at 0.06 uM incubated for 12 hrs by propidium iodide staining based flow cytometry analysis (Rvb=11.7%); format: functional
[10] = system: A549; test: Induction of apoptosis in human A549 cells assessed as late apoptotic cells at 0.8 uM incubated for 24 hrs by AnnexinV-FITC/propidium iodide staining-based flow cytometric analysis (reference value: 4.2%); format: functional
[11] = system: A549; test: Induction of apoptosis in human A549 cells assessed as late apoptotic cells at 0.6 uM incubated for 24 hrs by AnnexinV-FITC/propidium iodide staining-based flow cytometric analysis (reference value: 4.2%); format: functional
[12] = system: A549; test: Cell cycle arrest in human A549 cells assessed as accumulation at S phase at 0.18 uM incubated for 12 hrs by propidium iodide staining based flow cytometry analysis (Rvb=38.46%); format: functional
[13] = system: A549; test: Induction of apoptosis in human A549 cells assessed as increase in caspase-3 expression incubated for 8 hrs by western blot analysis; format: functional, cell-based
[14] = system: A549; test: Induction of apoptosis in human A549 cells assessed as necrotic cells at 0.2 uM incubated for 24 hrs by AnnexinV-FITC/propidium iodide staining-based flow cytometric analysis (reference value: 3.6%); format: functional
[15] = system: A549; test: Cell cycle arrest in human A549 cells assessed as accumulation at S phase at 0.27 uM incubated for 12 hrs by propidium iodide staining based flow cytometry analysis (Rvb=38.46%); format: functional
[16] = system: A549; test: Cell cycle arrest in human A549 cells assessed as accumulation at G1 phase at 0.06 uM incubated for 12 hrs by propidium iodide staining based flow cytometry analysis (Rvb=49.49%); format: functional
[17] = target: RAC-alpha serine/threonine-protein kinase (Homo sapiens) (UniProt P31749); test: Inhibition of Akt phosphorylation in human A549 cells incubated for 8 hrs by Western blot analysis; format: cell-based
[18] = system: MCF7; test: cells; conditions: Homo sapiens, MCF7, 48 h
[19] = system: A549; test: Cell cycle arrest in human A549 cells assessed as accumulation at S phase at 0.06 uM incubated for 24 hrs by propidium iodide staining based flow cytometry analysis (Rvb=27.61%); format: functional
[20] = system: A549; test: Cell cycle arrest in human A549 cells assessed as accumulation at G1 phase at 0.06 uM incubated for 24 hrs by propidium iodide staining based flow cytometry analysis (Rvb=55.3%); format: functional
[21] = system: A549; test: Induction of apoptosis in human A549 cells assessed as nuclear fragmentation at 0.06 to 0.18 uM incubated for 48 hrs by Hoechst 33342 staining-based fluorescence microscopy; format: functional, cell-based
[22] = system: A549; test: Induction of apoptosis in human A549 cells assessed as viable cells at 0.6 uM incubated for 24 hrs by AnnexinV-FITC/propidium iodide staining-based flow cytometric analysis (reference value: 88.1%); format: functional; conditions: A549, 24 h, read-out: Activity
[23] = system: A549; test: Induction of apoptosis in human A549 cells assessed as increase in cleaved caspase8 expression at 0.5 to 2 uM incubated for 8 hrs by western blot analysis; format: functional, cell-based
[24] = system: A549; test: Induction of apoptosis in human A549 cells assessed as decrease in Bcl-2 expression incubated for 8 hrs by western blot analysis; format: functional, cell-based
[25] = system: A549; test: Induction of apoptosis in human A549 cells assessed as viable cells at 0.8 uM incubated for 24 hrs by AnnexinV-FITC/propidium iodide staining-based flow cytometric analysis (reference value: 88.1%); format: functional; conditions: A549, 24 h, read-out: Activity
[26] = system: A549; test: Induction of apoptosis in human A549 cells assessed as cell shrinkage at 0.06 to 0.18 uM incubated for 48 hrs by Hoechst 33342 staining-based fluorescence microscopy; format: functional
[27] = system: A549; test: Induction of apoptosis in human A549 cells assessed as early apoptotic cells at 0.4 uM incubated for 24 hrs by AnnexinV-FITC/propidium iodide staining-based flow cytometric analysis (reference value: 4.1%); format: functional
[28] = system: A549; test: Cell cycle arrest in human A549 cells assessed as accumulation at G2 phase at 0.18 uM incubated for 12 hrs by propidium iodide staining based flow cytometry analysis (Rvb=11.7%); format: functional
[29] = system: A549; test: Induction of apoptosis in human A549 cells assessed as increase in Fas-L expression at 0.5 to 2 uM incubated for 8 hrs by western blot analysis; format: functional, cell-based
[30] = system: A549; test: Induction of apoptosis in human A549 cells assessed as necrotic cells at 0.8 uM incubated for 24 hrs by AnnexinV-FITC/propidium iodide staining-based flow cytometric analysis (reference value: 3.6%); format: functional
[31] = system: A549; test: Induction of apoptosis in human A549 cells assessed as viable cells at 1.2 uM incubated for 24 hrs by AnnexinV-FITC/propidium iodide staining-based flow cytometric analysis (reference value: 88.1%); format: functional; conditions: A549, 24 h, read-out: Activity
[32] = system: A549; test: Cell cycle arrest in human A549 cells assessed as accumulation at G0/G1 phase by propidium iodide staining based flow cytometric analysis; format: functional
[33] = system: A549; test: Induction of apoptosis in human A549 cells assessed as early apoptotic cells at 0.8 uM incubated for 24 hrs by AnnexinV-FITC/propidium iodide staining-based flow cytometric analysis (reference value: 4.1%); format: functional
[34] = system: A549; test: Induction of apoptosis in human A549 cells assessed as necrotic cells at 1.2 uM incubated for 24 hrs by AnnexinV-FITC/propidium iodide staining-based flow cytometric analysis (reference value: 3.6%); format: functional
[35] = system: A549; test: Induction of apoptosis in human A549 cells assessed as early apoptotic cells at 0.6 uM incubated for 24 hrs by AnnexinV-FITC/propidium iodide staining-based flow cytometric analysis (reference value: 4.1%); format: functional
[36] = system: A549; test: Induction of apoptosis in human A549 cells assessed as late apoptotic cells at 0.4 uM incubated for 24 hrs by AnnexinV-FITC/propidium iodide staining-based flow cytometric analysis (reference value: 4.2%); format: functional

RAC-alpha serine/threonine-protein kinase (Homo sapiens), sequence (P31749 whole entry): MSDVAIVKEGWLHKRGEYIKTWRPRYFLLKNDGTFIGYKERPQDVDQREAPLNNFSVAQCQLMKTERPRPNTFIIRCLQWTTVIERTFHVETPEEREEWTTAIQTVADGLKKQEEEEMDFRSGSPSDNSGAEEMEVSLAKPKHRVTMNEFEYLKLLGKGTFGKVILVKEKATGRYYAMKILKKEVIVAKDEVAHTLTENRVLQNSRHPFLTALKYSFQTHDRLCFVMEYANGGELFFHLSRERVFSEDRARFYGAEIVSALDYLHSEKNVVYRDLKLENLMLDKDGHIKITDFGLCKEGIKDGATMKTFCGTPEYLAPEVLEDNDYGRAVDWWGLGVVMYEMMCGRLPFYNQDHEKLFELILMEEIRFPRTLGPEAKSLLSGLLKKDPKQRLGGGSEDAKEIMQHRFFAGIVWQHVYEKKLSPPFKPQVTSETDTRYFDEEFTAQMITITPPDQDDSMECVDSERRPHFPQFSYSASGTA

`COC(=O)/C=C\c1ccc(OC)c(OCCOC(=O)[C@]2(C)CC[C@]3(C)CC[C@]4(C)C5=CC=C6C(=CC(=O)C(O)=C6C)[C@]5(C)CC[C@@]4(C)[C@@H]3C2)c1` showed an Activity [1] of 11.3%, an Activity [2] of 5.52% and an Activity [3] of 52.2%. For the same compound, the Activity [4] was “Active”, the pIC50 [5] was 6.59 and the Activity [6] was 4.5%. For the same compound, the Activity [7] was 61.95%, the Activity [8] was “Dose-dependent effect” and the Activity [9] was 12.14%. For the same compound, the Activity [10] was 43.3%, the Activity [11] was 27.6% and the Activity [12] was 34.71%. The Activity [13] was “Active”, the Activity [14] was 4.4% and the Activity [15] was 35.25%. For the same compound, the Activity [16] was 52.22%, the inhibition [17] was “Dose-dependent effect” and the pIC50 [18] was 6.77. The Activity [19] was 32.45%, the Activity [20] was 53.02% and the Activity [21] was “Active”. For the same compound, the viability at 0.6 µM [22] was 50.6%, the Activity [23] was “Dose-dependent effect” and the Activity [24] was “Active”. The viability at 0.8 µM [25] was 33.7%, the Activity [26] was “Active” and the Activity [27] was 10%. For the same compound, the Activity [28] was 10.44%, the Activity [29] was “Dose-dependent effect” and the Activity [30] was 6.9%. For the same compound, the viability at 1.2 µM [31] was 24.6%, the Activity [32] was “Dose-dependent effect” and the Activity [33] was 16.1%. The Activity [34] was 11.9%, the Activity [35] was 17.3% and the Activity [36] was 16.4%.
